Laboratory results from patent publication US20020039780A1, “Salicyclic acid inducible genes and promoters” (priority 1998, published 2002).

Tests used:
Type in all cases: cell-based
[1] = test system: early SA-induced genes identified by differential display; experiment: Northern analysis of differential display genes in cultured tobacco cells; conditions: 0.1 and 1 mM, approximately 2.5 h
Protocol: (§1) FIG. 1. […] Northern analysis of genes identified by differential display. Gel-purified DNA fragments produced by ddPCR were either used directly for random-primed labeling and probing of Northern filters (e.g. C7-1, C6-1, and G9-2) or first subcloned and released by restriction digest. Each lane contains 1 μg of poly(A) mRNA from cultured tobacco cells treated with (1) H2O, 4 hr; (2) 200 μM SA, 4 hr; (3) 71 μM CHX, 5 hr; (4) 71 μM CHX, 5 hr plus 200 μM SA after 1 hr (4 hr total); (5) 20 μM SA, 2 hr; (7) 200 μM SA, 8 hr.
(§2) FIG. 4. Specificity of induction among SA analogs and other signalling compounds. Northern analysis of representative differential display genes following treatment of tobacco cells with 100 μM or 1 mM (left and right side of triangles, respectively) of the following chemicals for 2-2.5 hr: salicylic acid (SA, lanes 4 and 5), acetylSA (ASA, lanes 6 and 7), benzoic acid (BA, lanes 8 and 9), 4-hydroxybenzoic (4HBA, lanes 10 and 11), thiamine (thia, lanes 12 and 13), methyljasmonate (MJ, lanes 14 and 15), abscisic acid (ABA, lanes 16 and 17), or 2,4-dichlorophenoxyacetic acid (2,4-D, lanes 18 and 19). Control treatments are H2O (H, lane 1), 1% ethanol (E, solvent concentration in MJ treatments, lane 2), or 1% DMSO (D, solvent concentration in 2,4D treatments, lane 3). Blots were hybridized with ddPCR fragments indicated at right or with the β-ATPase geneas a loading control probe. Autoradiogram exposure times were optimized for each gene. […] Labels on left indicate response class.
(§3) Differential display technology (Liang, P. and Pardee, A. B., Science 257: 967-971, 1992) was used to identify genes activated in the presence of SA, CHX and both. Therefore the absence or presence of SA, induction at 3 timepoints of SA-treatment, 2 different concentrations of SA and the effect of addition of CHX were measured. Seven treatments in total were performed. Treatment of tobacco BY-2 suspension cells and leaves and differential display PCR reactions were performed as described (Horvath and Chua (1996), Plant Mol. Biol. 31, 1061-1072).
(§4) The specificity for induction by SA was tested by treating tobacco cells with a range of SA analogs and plant signalling compounds at 0.1 and 1 mM for approximately 2.5 h. […] Several genes, including those for proteinase inhibitors and lipoxygenase (Hildmann, T. et al., Plant Cell 4: 1157-1170, 1992; Melan, M. A. et al., Plant Physiol. 101: 441-450, 1993; Xu, D. et al., Plant Mol. Biol. 22: 573-588, 1993) are known to be under dual regulation by MJ and ABA.

G8-1 = experiment: Northern analysis of mRNA accumulation in cultured tobacco cells; conditions: for G8-1 induction at 0.1 mM versus 1 mM: 0.1 and 1 mM, approximately 2.5 h
Protocol: as §1
(§5) FIG. 2. Time course of SA-induced gene expression. Northern analysis of representative differential display genes following treatment of cultured tobacco cells with SA for the indicated time (in hours, except lanes 2-4, which refer to 10, 20, and 30 min.). Twenty micrograms of total RNA was loaded per lane. Blots were hybridized with ddPCR fragments indicated at right or with the β-ATPase gene as a loading control probe. Autoradiogram exposure times were optimized for each gene. […] Labels on left indicate response class.
as §2
(§6) FIG. 5. Dose response of C18-1 and G8-1 to a range of chemicals. Northern analysis of tobacco cell cultures with eight concentrations of SA, ASA, BA, 4HBA, Thia, MJ, ABA, 2,4-D, or H2O for 2-2.5 hr. Concentrations were 0.1, 1, 3, 10, 30, 100, 300 μM or […], as indicated.
(§7) FIG. 6. […] Graphic representation of mRNA accumulation of G8-1 ( ), C18se -1 (♦), and IEGT (o) in response to a 2-2.5 hr incubation of cultured tobacco cells with a range of SA concentrations. RNA gel blots were quantitated by phosphorimaging analysis and normalized relative to the β-ATPase gene loading control (not shown).
as §3
The specificity for induction by SA was tested by treating tobacco cells with a range of SA analogs and plant signalling compounds at 0.1 and 1 mM for approximately 2.5 h.

Class I genes = experiment: Northern analysis of poly(A) mRNA from treated tobacco cells; conditions: SA at 2, 4 or 8 h; 71 μM CHX 5 hrs; CHX + 200 μM SA
Protocol: (§8) FIG. 1. Four classes of SA-induced early genes. Northern analysis of genes identified by differential display. Gel-purified DNA fragments produced by ddPCR were either used directly for random-primed labeling and probing of Northern filters (e.g. C7-1, C6-1, and G9-2) or first subcloned and released by restriction digest. Each lane contains 1 μg of poly(A) mRNA from cultured tobacco cells treated with (1) H2O, 4 hr; (2) 200 μM SA, 4 hr; (3) 71 μM CHX, 5 hr; (4) 71 μM CHX, 5 hr plus 200 μM SA after 1 hr (4 hr total); (5) 20 μM SA, 2 hr; (7) 200 μM SA, 8 hr. One blot was sequentially hybridized with the G1-1 fragment and the β-ATPase gene as a loading control probe. response classes (I-IV) are indicated on the left of the autoradiograms.
as §3
(§9) Fiftytwo were recovered for testing on poly(A)+Northern blots loaded with mRNA derived from cells from each of the treatments.

class II genes = experiment: as above; conditions: SA at 2, 4, 8 h; 71 μM CHX 5 hrs; CHX + 200 μM SA
Protocol: as §8, §3, §9

[2] = test system: class IV genes (G3-2 and C14-1b); experiment: as above
Protocol: as §8, §3, §9

C18-1/EREBP1 = experiment: Northern analysis of mRNA accumulation in cultured tobacco cells; conditions: 0.1 and 1 mM, approximately 2.5 h
Protocol: as §5, §2, §6, §7, §3
The kinetics of induction were examined in detail through time course experiments for representative clones of each class (FIG. 2).
as §4
A dose-response curve was made for SA. Therefore tobacco cells were treated with SA in a range of concentrations from 0.1 μM to 2 mM.

C6-2 = experiment: as above; conditions: 0.1 and 1 mM, approximately 2.5 h
Protocol: (§10) FIG. 2. Time course of SA-induced gene expression. Northern analysis of representative differential display genes following treatment of cultured tobacco cells with SA for the indicated time (in hours, except lanes 2-4, which refer to 10, 20, and 30 min.). Twenty micrograms of total RNA was loaded per lane. Blots were hybridized with ddPCR fragments indicated at right or with the β-ATPase gene as a loading control probe. Autoradiogram exposure times were optimized for each gene. The signal for C18-1 was enhanced by using the full length cDNA as probe. Labels on left indicate response class.
(§11) FIG. 4. Specificity of induction among SA analogs and other signalling compounds. Northern analysis of representative differential display genes following treatment of tobacco cells with 100 μM or 1 mM (left and right side of triangles, respectively) of the following chemicals for 2-2.5 hr: salicylic acid (SA, lanes 4 and 5), acetylSA (ASA, lanes 6 and 7), benzoic acid (BA, lanes 8 and 9), 4-hydroxybenzoic (4HBA, lanes 10 and 11), thiamine (thia, lanes 12 and 13), methyljasmonate (MJ, lanes 14 and 15), abscisic acid (ABA, lanes 16 and 17), or 2,4-dichlorophenoxyacetic acid (2,4-D, lanes 18 and 19). Control treatments are H2O (H, lane 1), 1% ethanol (E, solvent concentration in MJ treatments, lane 2), or 1% DMSO (D, solvent concentration in 2,4D treatments, lane 3). Blots were hybridized with ddPCR fragments indicated at right or with the β-ATPase geneas a loading control probe. Autoradiogram exposure times were optimized for each gene. The signal for C18-1 was enhanced by using the full length cDNA as probe. Labels on left indicate response class.
as §3
(§12) The specificity for induction by SA was tested by treating tobacco cells with a range of SA analogs and plant signalling compounds at 0.1 and 1 mM for approximately 2.5 h. […] Among the SA-analogs, acetyl-SA (ASA, aspirin), benzoic acid (BA) and 4-hydroxybenzoic acid (4HBA), responses generally reflected the ability of the analog to substitute for SA in other cellular responses (Yalpani, N. et al., Plant Cell 3: 809-818, 1991, Yang, Y. and Klessig, D. F., Proc. Natl. Acad. Sci. 93, 14972-14977, 1996). […] Several genes, including those for proteinase inhibitors and lipoxygenase (Hildmann, T. et al., Plant Cell 4: 1157-1170, 1992; Melan, M. A. et al., Plant Physiol. 101: 441-450, 1993; Xu, D. et al., Plant Mol. Biol. 22: 573-588, 1993) are known to be under dual regulation by MJ and ABA. A similar mode of regulation may be in effect with C14-1b. the auxin 2,4-D induced several genes including C18-1/EREBP1 and C6-2.

G3-2 = experiment: as above; conditions: 0.1 and 1 mM, approximately 2.5 h
Protocol: as §8, §10, §11, §3, §12

C14-1b = experiment: as above; conditions: 0.1 and 1 mM, approximately 2.5 h
Protocol: as §10, §11, §3, §12

[3] = 71 μM CHX 5 hrs + 200 μM SA after 1 hr
[4] = SA at 2, 4, 8 h, 71 μM CHX 5 hrs

O=C(O)c1ccc(O)cc1 [4HBA, 4-hydroxybenzoic acid]
induction of the genes tested [1]: failed to induce all genes but C6-2

C[C@@H]1C[C@@H]([C@H](O)CC2CC(=O)NC(=O)C2)C(=O)[C@@H](C)C1 [CHX, cycloheximide]
effect of presence of CHX on induction of G8-1 by SA (G8-1; [3]): did not significantly alter
mRNA induction of G8-1 (class III) (G8-1; [4]): did not induce
mRNA induction of Class I genes (Class I genes): some induction
mRNA induction of class II genes (class II genes): also induced expression
effect of CHX on induction of class IV genes by SA [2, 3]: blocked the induction
mRNA induction of class IV genes [2, 4]: fail to induce

O=C(O)c1ccccc1 [BA, benzoic acid]
C18-1/EREBP1 induction at 0.1 mM versus 1 mM (C18-1/EREBP1): greater induction at 1mM
G8-1 induction at 0.1 mM versus 1 mM (G8-1): equal or greater induction at 0.1 mM versus 1 mM
C6-2 induction at 0.1 mM versus 1 mM (C6-2): greater induction at 1mM
G3-2 induction at 0.1 mM versus 1 mM (G3-2): equal or greater induction at 0.1 mM versus 1 mM
induction of the genes tested [1]: also induced the expression

CC1=CC(=O)CC(C)(C)[C@@]1(O)/C=C/C(C)=C\C(=O)O [ABA, abscisic acid]
induction of C14-1b (C14-1b): could be induced

O=C(O)COc1ccc(Cl)cc1Cl [2,4-D, 2,4-dichlorophenoxyacetic acid]
induction of C18-1/EREBP1 (C18-1/EREBP1): induced
induction of C6-2 (C6-2): induced

CC(=O)Oc1ccccc1C(=O)O [ASA, acetyl-SA]
C18-1/EREBP1 induction at 0.1 mM versus 1 mM (C18-1/EREBP1): greater induction at 1mM
G8-1 induction at 0.1 mM versus 1 mM (G8-1): equal or greater induction at 0.1 mM versus 1 mM
C6-2 induction at 0.1 mM versus 1 mM (C6-2): greater induction at 1mM
G3-2 induction at 0.1 mM versus 1 mM (G3-2): equal or greater induction at 0.1 mM versus 1 mM
induction of the genes tested [1]: induced all genes to similar levels as SA

Cc1ncc(C[n+]2csc(CCO)c2C)c(N)n1 [thiamine]
induction of the genes tested [1]: did not produce a response from any of the genes tested

CC/C=C\CC1C(=O)CCC1CC(=O)OC (centres unmarked) [MJ, Methyljasmonate]
effectiveness as inducer of C18-1/EREBP1 among compounds tested (C18-1/EREBP1): most effective inducer
induction of C18-1/EREBP1 (C18-1/EREBP1): able to induce expression
effectiveness as inducer of C14-1b among compounds tested (C14-1b): most effective inducer
induction of C14-1b (C14-1b): able to induce expression
induction of G3-2 (G3-2): able to induce expression
